# From US20070249670A1, “Glycogen Phosphorylase Inhibitor Compounds and Pharmaceutical Compositions Thereof” (SMITHKLINE BEECHAM CORPORATION, priority 2004, published 2007)
# Where a name gives a salt, the structure may show the parent alone.
# Target: T1, human liver glycogen phosphorylase a (HLGPa) (Homo sapiens, UniProt P06737)
# T1 construct: creating a full-length cDNA fused at the 5′ end to codons for methionine-glycine-alanine-histidine; 6xHis tag (leader Met-Gly-Ala-His6-Gly-Gly) (N); made in house; host or cells: E. coli (bacterial expression plasmid pTXK1007LTev)
# T1 sequence (P06737 2-847 limits assumed): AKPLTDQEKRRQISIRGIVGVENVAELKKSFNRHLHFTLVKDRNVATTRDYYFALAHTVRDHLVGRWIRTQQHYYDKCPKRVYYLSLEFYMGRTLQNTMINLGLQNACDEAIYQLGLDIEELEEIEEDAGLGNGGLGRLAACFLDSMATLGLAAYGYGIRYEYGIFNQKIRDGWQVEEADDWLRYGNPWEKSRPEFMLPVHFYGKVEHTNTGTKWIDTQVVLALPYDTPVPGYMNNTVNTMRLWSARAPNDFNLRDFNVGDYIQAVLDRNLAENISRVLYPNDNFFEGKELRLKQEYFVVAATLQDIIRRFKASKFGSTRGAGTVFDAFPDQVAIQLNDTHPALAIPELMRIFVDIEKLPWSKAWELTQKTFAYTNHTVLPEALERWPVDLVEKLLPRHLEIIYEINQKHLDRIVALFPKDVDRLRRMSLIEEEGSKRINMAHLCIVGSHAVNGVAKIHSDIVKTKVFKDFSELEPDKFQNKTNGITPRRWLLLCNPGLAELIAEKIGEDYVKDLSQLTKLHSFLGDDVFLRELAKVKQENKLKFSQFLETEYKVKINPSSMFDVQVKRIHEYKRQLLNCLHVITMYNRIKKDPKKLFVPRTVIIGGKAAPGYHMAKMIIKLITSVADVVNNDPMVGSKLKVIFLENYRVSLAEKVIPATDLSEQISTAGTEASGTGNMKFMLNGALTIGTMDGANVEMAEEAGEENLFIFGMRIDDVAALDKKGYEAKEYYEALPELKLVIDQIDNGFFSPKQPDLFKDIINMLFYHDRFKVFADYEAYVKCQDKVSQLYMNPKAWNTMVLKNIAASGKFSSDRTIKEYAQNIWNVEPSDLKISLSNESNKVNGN
# Experiment: Human liver glycogen phosphorylase a enzymatic activity assay (coupled, fluorescent resorufin readout, with and without 10 mM glucose)
# Format: biochemical
# Settings: human liver glycogen phosphorylase a enzymatic activity assay
row,SMILES,IC50
1,"O=C(Nc1cc(-c2ccccc2)sc1C(=O)N[C@H](C(=O)O)C1CCCCC1)Nc1c(Cl)cccc1Cl [Example 411, (2S)-cyclohexyl({[3-({[(2,6-dichlorophenyl)amino]carbonyl}amino)-5-phenyl-2-thienyl]carbonyl}amino)ethanoic acid]",120 nM
2,"COc1cc(NC(=O)Nc2c(C)cccc2Cl)c(C(=O)N[C@@H](Cc2c[nH]c3ccccc23)C(=O)O)cc1OC [Example 75, N-[2-({[(2-chloro-6-methylphenyl)amino]carbonyl}amino)-4,5-dimethoxybenzoyl]-L-tryptophan trifluoroacetate]",760 nM
3,"O=C(Nc1ccccc1Cl)Nc1cc2ccccc2cc1C(=O)N[C@@H](Cc1cnc[nH]1)C(=O)O [Example 56, N-[3-({[(2-chlorophenyl)amino]carbonyl}amino)-2-naphthoyl]-L-histidine trifluoroacetate]",3080 nM
4,"O=C(Nc1ccccc1Cl)Nc1cc2ccccc2cc1C(=O)N[C@@H](Cc1cccs1)C(=O)O [Example 101, N-{[3-({[(2-chlorophenyl)amino]carbonyl}amino)-2-naphthalenyl]carbonyl}-3-(2-thienyl)-L-alanine]",2780 nM
5,"Cc1ccccc1NC(=O)Nc1cc2ccccc2cc1C(=O)N[C@@H](Cc1c[nH]c2ccccc12)C(=O)O [Example 46, N-[3-({[(2-methylphenyl)amino]carbonyl}amino)-2-naphthoyl]-L-tryptophan]",3730 nM
6,"O=C(Nc1sc(Cc2ccccc2)cc1C(=O)O)Nc1c(Cl)cccc1Cl [Example 397, 2-({[(2,6-dichlorophenyl)amino]carbonyl}amino)-5-(phenylmethyl)-3-thiophenecarboxylic acid]",14300 nM
7,"Cc1ccccc1NC(=O)Nc1cc2ccccc2cc1C(=O)N[C@@H](CC(C)C)C(=O)O [Example 16, N-[3-({[(2-methylphenyl)amino]carbonyl}amino)-2-naphthoyl]-L-leucine]",5100 nM
8,"CSCC[C@H](NC(=O)c1cc2ccccc2cc1NC(=O)Nc1ccccc1C)C(=O)O [Example 43, N-[3-({[(2-methylphenyl)amino]carbonyl}amino)-2-naphthoyl]-L-methionine]",18900 nM
9,"COC(=O)[C@@H](NC(=O)c1sc(-c2cccnc2)cc1NC(=O)Nc1c(Cl)cccc1Cl)C1CCCCC1 [Example 404, methyl(2S)-cyclohexyl({[3-({[(2,6-dichlorophenyl)amino]carbonyl}amino)-5-(3-pyridinyl)-2-thienyl]carbonyl}amino)ethanoate]",13200 nM
10,"NC(=O)C[C@H](NC(=O)c1cc2ccccc2cc1NC(=O)Nc1ccccc1Cl)C(=O)O [Example 31, N-[3-({[(2-chlorophenyl)amino]carbonyl}amino)-2-naphthoyl]-L-asparagine]",11400 nM

# Further lines, results first:
row,IC50,SMILES
1,4230 nM,"COc1cc(NC(=O)Nc2c(C)cc(C)cc2C)c(C(=O)NC(C(=O)O)c2ccccc2)cc1OC (centres unmarked) [Example 106, [(2-{[(mesitylamino)carbonyl]amino}-4,5-dimethoxybenzoyl)amino](phenyl)acetic acid]"
2,7 nM,"Cc1cc(C)c(NC(=O)Nc2cc(-c3ccc(F)c(F)c3)ccc2C(=O)N[C@H](C(=O)O)[C@@H](C)OC2CCC2)c(C)c1 [Example 519, O-cyclobutyl-N-{[3′,4′-difluoro-3-({[(2,4,6-trimethylphenyl)amino]carbonyl}amino)-4-biphenylyl]carbonyl}-L-threonine]"
3,94 nM,"Cc1cccc(C)c1NC(=O)Nc1cc(Cl)c(Cl)cc1C(=O)N[C@H](C(=O)O)C1CCCCC1 [Example 180, (2S)-Cyclohexyl({[4,5-dichloro-2-({[(2,6-dimethylphenyl)amino]carbonyl}amino)phenyl]carbonyl}amino)ethanoic acid]"
4,230 nM,O=C(Nc1cc(-c2cccnc2)sc1C(=O)N[C@H](C(=O)O)C1CCCCC1)Nc1c(Cl)cccc1Cl [Example 405]
5,13000 nM,"COc1cc(NC(=O)Nc2c(C)cccc2Cl)c(C(=O)N[C@@H](CC2CCCCC2)C(=O)O)cc1OC [Example 115, N-[2-({[(2-chloro-6-methylphenyl)amino]carbonyl}amino)-4,5-dimethoxybenzoyl]-3-cyclohexyl-L-alanine]"
6,180 nM,"Cc1cccc(Cl)c1NC(=O)Nc1cc(Cl)ccc1C(=O)N[C@H](C(=O)O)C1CCCCC1 [Example 172, (2S)-({[4-Chloro-2-({[(2-chloro-6-methylphenyl)amino]carbonyl}-amino)phenyl]carbonyl}amino)(cyclohexyl)ethanoic acid]"

# Same assay, conditions: human liver glycogen phosphorylase a; table does not say whether with or without 10 mM glucose
row,SMILES,IC50
1,"CCOC(=O)C[C@H](NC(=O)c1ccc(-c2ccc(OC)cc2)cc1NC(=O)Nc1c(C)cc(Br)cc1C)C(=O)OCc1ccccc1 [Example 368, 4-ethyl 1-(phenylmethyl) N-{[3-({[(4-bromo-2,6-dimethylphenyl)amino]carbonyl}amino)-4′-(methyloxy)-4-biphenylyl]carbonyl}-L-aspartate]",5580 nM
2,"CCCC(=O)N1CCC(NC(=O)c2cc3ccccc3cc2NC(=O)Nc2c(C)cc(C)cc2C)(C(=O)O)CC1 [Example 290, 1-Butanoyl-4-({[3-({[(2,4,6-trimethylphenyl)amino]carbonyl}amino)-2-naphthalenyl]carbonyl}amino)-4-piperidinecarboxylic acid]",1240 nM
3,"Cc1cc(C)c(CC(=O)Nc2cc3ccccc3cc2C(=O)N[C@H](C(=O)O)[C@@H](C)OC(C)(C)C)c(C)c1 [Example 268, O-(1,1-dimethylethyl)-N-[(3-{[(2,4,6-trimethylphenyl)acetyl]amino}-2-naphthalenyl)carbonyl]-L-threonine]",50 nM
4,"O=C(O)CN(Cc1ccccn1)C(=O)c1cc2ccccc2cc1NC(=O)Nc1c(Cl)cc(Cl)cc1Cl [Example 242, N-(2-pyridinylmethyl)-N-{[3-({[(2,4,6-trichlorophenyl)amino]carbonyl}amino)-2-naphthalenyl]carbonyl}glycine]",2860 nM
5,"CCCCN(CC(=O)O)C(=O)c1cc2ccccc2cc1NC(=O)Nc1c(Cl)cccc1Cl [Example 252, N-butyl-N-{[3-({[(2,6-dichlorophenyl)amino]carbonyl}amino)-2-naphthalenyl]carbonyl}glycine]",650 nM

# The next lines start with the values.
row,IC50,SMILES
1,11 nM,"Cc1cc(C)c(NC(=O)Nc2cc3ccccc3cc2C(=O)N[C@H](C(=O)O)[C@H]2CCCC(OC(=O)C(F)(F)F)C2)c(C)c1 (stereo partly drawn) [Example 360, (2S)-{(1S)-3-[(trifluoroacetyl)oxy]cyclohexyl}({[3-({[(2,4,6-trimethylphenyl)amino]carbonyl}amino)-2-naphthalenyl]carbonyl}amino)ethanoic acid]"
2,820 nM,"CCOC(=O)C[C@H](NC(=O)c1ccc(-c2ccc(F)c(F)c2)cc1NC(=O)Nc1c(C)cc(C)cc1C)C(=O)O [Example 374, (2S)-2-({[3′,4′-difluoro-3-({[(2,4,6-trimethylphenyl)amino]carbonyl}amino)-4-biphenylyl]carbonyl}amino)-4-(ethyloxy)-4-oxobutanoic acid]"
3,230 nM,"O=C(Nc1sc(-c2ccccc2)cc1C(=O)N[C@H](C(=O)O)C1CCCCC1)Nc1c(Cl)cccc1Cl [Example 384, (2S)-cyclohexyl({[2-({[(2,6-dichlorophenyl)amino]carbonyl}amino)-5-phenyl-3-thienyl]carbonyl}amino)ethanoic acid]"
4,290 nM,"Cc1cc(C)c(NC(=O)Nc2cc(F)ccc2C(=O)N[C@H](C(=O)O)C2CCCC2)c(C)c1 [Example 211, (2S)-Cyclopentyl({[4-fluoro-2-({[(2,4,6-trimethylphenyl)amino]carbonyl}amino)phenyl]carbonyl}amino)ethanoic acid]"
5,23 nM,"O=C(Nc1cc(-c2ccccc2)ccc1C(=O)N[C@H](C(=O)O)C1CCCCC1)Nc1c(Cl)cc(OC(F)(F)F)cc1Cl [Example 214, (2S)-Cyclohexyl{[(3-{[({2,6-dichloro-4-[(trifluoromethyl)oxy]phenyl}amino)carbonyl]amino}-4-biphenylyl)carbonyl]amino}ethanoic acid]"
6,540 nM,"Cc1cc(C)c(NC(=O)Nc2cc3ccccc3cc2C(=O)NC2(C(=O)O)CCC(=NO)CC2)c(C)c1 (centres unmarked) [Example 296, 4-(hydroxyimino)-1-({[3-({[(2,4,6-trimethylphenyl)amino]carbonyl}amino)-2-naphthalenyl]carbonyl}amino)cyclohexanecarboxylic acid]"
7,17500 nM,"Cc1cc(C(=O)N[C@H](C(=O)O)C2CCCCC2)c(NC(=O)Nc2c(Cl)cccc2Cl)s1 [Example 390, (2S)-cyclohexyl({f[2-({[(2,6-dichlorophenyl)amino]carbonyl}amino)-5-methyl-3-thienyl]carbonyl}amino)ethanoic acid]"
8,7 nM,"CCOc1ccc(-c2ccc(C(=O)N[C@H](C(=O)O)C3CCCCC3)c(NC(=O)Nc3c(C)cc(C)cc3C)c2)cc1 [Example 218, (2S)-Cyclohexyl({[4′-(ethyloxy)-3-({[(2,4,6-trimethylphenyl)amino]carbonyl}amino)-4-biphenylyl]carbonyl}amino)ethanoic acid]"
